From patent US20240358693A1, “METHODS OF TREATING PAIN” (Aisa Pharma, Inc., priority 2023, published 2024)

Test system: participants with SSc-RP
Test: Scleroderma Health Assessment Questionnaire (SHAQ): disability indices and visual analog scales
Type: in vivo, human
Outline: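 Participants with SSc-RP completed the SHAQ at screening and each in-clinic visit. Standard and alternative disability indices (eight categories, 0–3; standard adjusts for aids/assistance) plus Raynaud's VAS on interference over the past 7 days. Reported as absolute change from baseline to end of each dosing period.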

[1] = Pooled Cilnidipine 10 mg and Cilnidipine 10 mg + Tadalafil 5 mg (N = 9), sensitivity analysis, Modified ITT, Part A
[2] = Pooled Cilnidipine 20 mg and Cilnidipine 20 mg + Tadalafil 5 mg (N = 7), sensitivity analysis, Modified ITT, Part A
[3] = Pooled Cilnidipine (10 mg or 20 mg) (N = 7)
[4] = Pooled Cilnidipine (10 mg or 20 mg) (N = 7), n 6
[5] = Pooled Cilnidipine (N = 6), Day 12, Modified ITT, SSc patients, Part A
[6] = Pooled Cilnidipine (N = 7), sensitivity analysis, Modified ITT, Part A

SMILES: COCCOC(=O)C1=C(C)NC(C)=C(C(=O)OC/C=C/c2ccccc2)C1c1cccc([N+](=O)[O-])c1 (stereo not drawn) [Cilnidipine, cilnidipine]
- SHAQ VAS Raynaud's: Percent Change from Baseline, Mean [1]: −9.97%
- SHAQ VAS Raynaud's: Percent Change from Baseline, Median [1]: −4.39%
- SHAQ Standard Disability Index: Baseline, Mean [2]: 0.554
- SHAQ Standard Disability Index: Baseline, Median [2]: 0.375
- SHAQ Standard Disability Index: Change from Baseline, Mean [2]: −0.092
- SHAQ Standard Disability Index: Change from Baseline, Median [2]: 0.000
- SHAQ Standard Disability Index: Day 12, Mean [2]: 0.462
- SHAQ Standard Disability Index: Day 12, Median [2]: 0.250
- SHAQ Standard Disability Index: Percent Change from Baseline, Mean [2]: −5.99%
- SHAQ Standard Disability Index: Percent Change from Baseline, Median [2]: −33.33%
- SHAQ VAS Breathing Problems: Baseline, Mean [2]: 1.071
- SHAQ VAS Breathing Problems: Baseline, Median [2]: 0.800
- SHAQ VAS Breathing Problems: Change from Baseline, Mean [2]: 0.171
- SHAQ VAS Breathing Problems: Change from Baseline, Median [2]: 0.000
- SHAQ VAS Breathing Problems: Day 12, Mean [2]: 1.243
- SHAQ VAS Breathing Problems: Day 12, Median [2]: 0.400
- SHAQ VAS Breathing Problems: Percent Change from Baseline, Mean [2]: 103.99%
- SHAQ VAS Breathing Problems: Percent Change from Baseline, Median [2]: 24.48%
- SHAQ VAS Finger Ulcers: Baseline, Mean [2]: 1.986
- SHAQ VAS Finger Ulcers: Baseline, Median [2]: 0.100
- SHAQ VAS Finger Ulcers: Change from Baseline, Mean [2]: −0.950
- SHAQ VAS Finger Ulcers: Change from Baseline, Median [2]: −0.050
- SHAQ VAS Finger Ulcers: Day 12, Mean [2]: 1.367
- SHAQ VAS Finger Ulcers: Day 12, Median [2]: 0.350
- SHAQ VAS Finger Ulcers: Percent Change from Baseline, Mean [2]: −15.69%
- SHAQ VAS Finger Ulcers: Percent Change from Baseline, Median [2]: −48.04%
- SHAQ VAS Intestinal Problems: Baseline, Mean [2]: 0.886
- SHAQ VAS Intestinal Problems: Baseline, Median [2]: 1.000
- SHAQ VAS Intestinal Problems: Change from Baseline, Mean [2]: 0.271
- SHAQ VAS Intestinal Problems: Change from Baseline, Median [2]: 0.000
- SHAQ VAS Intestinal Problems: Day 12, Mean [2]: 1.157
- SHAQ VAS Intestinal Problems: Day 12, Median [2]: 0.200
- SHAQ VAS Intestinal Problems: Percent Change from Baseline, Mean [2]: 12.47%
- SHAQ VAS Intestinal Problems: Percent Change from Baseline, Median [2]: 30.00%
- SHAQ VAS Overall Disease Severity: Baseline, Mean [2]: 3.200
- SHAQ VAS Overall Disease Severity: Baseline, Median [2]: 2.900
- SHAQ VAS Overall Disease Severity: Change from Baseline, Mean [2]: −1.186
- SHAQ VAS Overall Disease Severity: Change from Baseline, Median [2]: −1.500
- SHAQ VAS Overall Disease Severity: Day 12, Mean [2]: 2.014
- SHAQ VAS Overall Disease Severity: Day 12, Median [2]: 1.200
- SHAQ VAS Overall Disease Severity: Percent Change from Baseline, Mean [2]: −44.99%
- SHAQ VAS Overall Disease Severity: Percent Change from Baseline, Median [2]: −44.74%
- SHAQ VAS Pain: Baseline, Mean [2]: 2.667
- SHAQ VAS Pain: Baseline, Median [2]: 2.550
- SHAQ VAS Pain: Change from Baseline, Mean [2]: −0.700
- SHAQ VAS Pain: Change from Baseline, Median [2]: −0.650
- SHAQ VAS Pain: Day 12, Mean [2]: 2.000
- SHAQ VAS Pain: Day 12, Median [2]: 2.100
- SHAQ VAS Pain: Percent Change from Baseline, Mean [2]: −33.40%
- SHAQ VAS Pain: Percent Change from Baseline, Median [2]: −51.06%
- SHAQ VAS Raynaud's: Baseline, Mean [2]: 2.314
- SHAQ VAS Raynaud's: Baseline, Median [2]: 0.900
- SHAQ VAS Raynaud's: Change from Baseline, Mean [2]: −1.014
- SHAQ VAS Raynaud's: Change from Baseline, Median [2]: −0.300
- SHAQ VAS Raynaud's: Day 12, Mean [2]: 1.300
- SHAQ VAS Raynaud's: Day 12, Median [2]: 0.600
- SHAQ VAS Raynaud's: Percent Change from Baseline, Mean [2]: −34.71%
- SHAQ VAS Raynaud's: Percent Change from Baseline, Median [2]: −40.67%
- SHAQ patient reported disease severity, Change from Baseline, Mean [3]: −1.214
- SHAQ patient reported disease severity, Change from Baseline, Median [3]: −1.500
- SHAQ patient reported disease severity, In-Clinic Visit (Day 12), Mean [3]: 1.486
- SHAQ patient reported disease severity, In-Clinic Visit (Day 12), Median [3]: 1.200
- SHAQ patient reported disease severity, Percent Change from Baseline, Mean [4]: −59.80%
- SHAQ patient reported disease severity, Percent Change from Baseline, Median [4]: −55.86%
- SHAQ Alternative Disability Index: Change from Baseline, Mean [5]: 0.000
- SHAQ Alternative Disability Index: Change from Baseline, Median [5]: −0.063
- SHAQ Alternative Disability Index: In-Clinic Visit (Day 12), Mean [5]: 0.438
- SHAQ Alternative Disability Index: In-Clinic Visit (Day 12), Median [5]: 0.188
- SHAQ Alternative Disability Index: Percent Change from Baseline, Mean [5]: −12.90%
- SHAQ Alternative Disability Index: Percent Change from Baseline, Median [5]: −22.22%
- SHAQ Standard Disability Index: Change from Baseline, Mean [5]: −0.063
- SHAQ Standard Disability Index: Change from Baseline, Median [5]: 0.000
- SHAQ Standard Disability Index: In-Clinic Visit (Day 12), Mean [5]: 0.500
- SHAQ Standard Disability Index: In-Clinic Visit (Day 12), Median [5]: 0.188
- SHAQ Standard Disability Index: Percent Change from Baseline, Mean [5]: −25.00%
- SHAQ Standard Disability Index: Percent Change from Baseline, Median [5]: −16.67%
- SHAQ Visual Analogue Scale - Breathing Problems: Change from Baseline, Mean [5]: −0.617
- SHAQ Visual Analogue Scale - Breathing Problems: Change from Baseline, Median [5]: −0.400
- SHAQ Visual Analogue Scale - Breathing Problems: In-Clinic Visit (Day 12), Mean [5]: 1.200
- SHAQ Visual Analogue Scale - Breathing Problems: In-Clinic Visit (Day 12), Median [5]: 0.200
- SHAQ Visual Analogue Scale - Breathing Problems: Percent Change from Baseline, Mean [5]: −8.17%
- SHAQ Visual Analogue Scale - Breathing Problems: Percent Change from Baseline, Median [5]: −41.33%
- SHAQ Visual Analogue Scale - Finger Ulcers: Change from Baseline, Mean [5]: −0.750
- SHAQ Visual Analogue Scale - Finger Ulcers: Change from Baseline, Median [5]: −0.350
- SHAQ Visual Analogue Scale - Finger Ulcers: In-Clinic Visit (Day 12), Mean [5]: 0.617
- SHAQ Visual Analogue Scale - Finger Ulcers: In-Clinic Visit (Day 12), Median [5]: 0.350
- SHAQ Visual Analogue Scale - Finger Ulcers: Percent Change from Baseline, Mean [5]: −17.08%
- SHAQ Visual Analogue Scale - Finger Ulcers: Percent Change from Baseline, Median [5]: −50.82%
- SHAQ Visual Analogue Scale - Intestinal Problems: Change from Baseline, Mean [5]: −1.083
- SHAQ Visual Analogue Scale - Intestinal Problems: Change from Baseline, Median [5]: 0.000
- SHAQ Visual Analogue Scale - Intestinal Problems: In-Clinic Visit (Day 12), Mean [5]: 1.300
- SHAQ Visual Analogue Scale - Intestinal Problems: In-Clinic Visit (Day 12), Median [5]: 0.950
- SHAQ Visual Analogue Scale - Intestinal Problems: Percent Change from Baseline, Mean [5]: −15.53%
- SHAQ Visual Analogue Scale - Intestinal Problems: Percent Change from Baseline, Median [5]: −7.06%
- SHAQ Visual Analogue Scale - Overall Disease Severity: Change from Baseline, Mean [5]: −1.350
- SHAQ Visual Analogue Scale - Overall Disease Severity: Change from Baseline, Median [5]: −1.550
- SHAQ Visual Analogue Scale - Overall Disease Severity: In-Clinic Visit (Day 12), Mean [5]: 1.733
- SHAQ Visual Analogue Scale - Overall Disease Severity: In-Clinic Visit (Day 12), Median [5]: 1.300
- SHAQ Visual Analogue Scale - Overall Disease Severity: Percent Change from Baseline, Mean [5]: −51.76%
- SHAQ Visual Analogue Scale - Overall Disease Severity: Percent Change from Baseline, Median [5]: −51.72%
- SHAQ Visual Analogue Scale - Pain: Change from Baseline, Mean [5]: −0.500
- SHAQ Visual Analogue Scale - Pain: Change from Baseline, Median [5]: −0.250
- SHAQ Visual Analogue Scale - Pain: In-Clinic Visit (Day 12), Mean [5]: 1.617
- SHAQ Visual Analogue Scale - Pain: In-Clinic Visit (Day 12), Median [5]: 1.400
- SHAQ Visual Analogue Scale - Pain: Percent Change from Baseline, Mean [5]: −29.23%
- SHAQ Visual Analogue Scale - Pain: Percent Change from Baseline, Median [5]: −48.78%
- SHAQ Visual Analogue Scale - Raynaud's: Change from Baseline, Mean [5]: −0.550
- SHAQ Visual Analogue Scale - Raynaud's: Change from Baseline, Median [5]: −0.600
- SHAQ Visual Analogue Scale - Raynaud's: In-Clinic Visit (Day 12), Mean [5]: 1.667
- SHAQ Visual Analogue Scale - Raynaud's: In-Clinic Visit (Day 12), Median [5]: 1.250
- SHAQ Visual Analogue Scale - Raynaud's: Percent Change from Baseline, Mean [5]: −18.64%
- SHAQ Visual Analogue Scale - Raynaud's: Percent Change from Baseline, Median [5]: −38.67%
- SHAQ Standard Disability Index: Baseline, Mean [6]: 0.482
- SHAQ Standard Disability Index: Baseline, Median [6]: 0.375
- SHAQ Standard Disability Index: Change from Baseline, Mean [6]: −0.054
- SHAQ Standard Disability Index: Change from Baseline, Median [6]: 0.000
- SHAQ Standard Disability Index: Day 12, Mean [6]: 0.429
- SHAQ Standard Disability Index: Day 12, Median [6]: 0.125
- SHAQ Standard Disability Index: Percent Change from Baseline, Mean [6]: −25.00%
- SHAQ Standard Disability Index: Percent Change from Baseline, Median [6]: −16.67%
- SHAQ VAS Breathing Problems: Baseline, Mean [6]: 1.557
- SHAQ VAS Breathing Problems: Baseline, Median [6]: 0.200
- SHAQ VAS Breathing Problems: Change from Baseline, Mean [6]: −0.529
